Columns and labels:
[1] = test system: multidrug-resistant bacteria; conditions: reported; cited from earlier work
[2] = stability in solution protected from light
cell cycle = assay: effect of avrainvillamide on the cell cycle (FIG. 19); type: cell-based
apoptosis and necrosis = assay: induction of apoptosis and necrosis (FIG. 20); type: cell-based
Protocol: FIG. 20 induces apoptosis at 1-4 μM and necrosis at 8 μM.

[3] = decomposition of stephacidin B into avrainvillamide (FIG. 18); type: physicochemical
[4] = test system: cultured human cancer cells; conditions: reported for the fungal isolates; cited from earlier work
[5] = 1,5-addition of methanol-d4 to 2
[6] = interconversion of stephacidin B (1) and 2 in solution; type: physicochemical; conditions: 50% DMSO-d6-CD3CN, 23° C.
Protocol: Our preliminary studies leave little doubt that 1 and 2 are readily interconverted in solution. For example, concentration of an acetonitrile-water solution of pure synthetic stephacidin B (1) at 38° C. afforded a 2:1 mixture of 2 and 1, as well as unidentified decomposition products. Also, whereas solutions of pure 1 in 50% DMSO-d6-CD3CN appeared to be stable for at least 48 h at 23° C. (The merits of the DMSO-d6-CD3CN solvent system in stabilizing stephacidin B were discussed in Qian-Cutrone et al. J. Am. Chem. Soc. 2002, 124, 14556; incorporated herein by reference.), addition of powdered 3-Å molecular sieves led to partial retro-dimerization, giving a 2:1 mixture of 1 and 2 within 1 h at 23° C. We also observed partial transformation of 1 to form 2 upon exposure to silica gel (2D-TLC analysis). From the data thus far it is clear that (−)-2 and (+)-1 readily interconvert under mild conditions. […] In theory, the converse may be true, though this seems less likely, simply upon consideration of concentration effects. Our results also leave open the possibility that stephacidin B is an artifact of the isolation of 2; the converse may be true instead, though this would appear to be less likely.

CC1(C)C=Cc2c(ccc3c2[N+]([O-])=C2C3=C[C@@]34NC(=O)[C@]5(CCCN5C3=O)C[C@H]4C2(C)C)O1 [compound 1, avrainvillamide]
antimicrobial activity [1]: antimicrobial activity against multidrug-resistant bacteria

CC(C)(C)/C=C/C=[N+]([O-])c1ccccc1 [α-(trans-3,3-dimethyl-1-butenyl)-N-phenylnitrone]
time stable in solution ([2]; 37 mM solution in methylene-d2-chloride, 23° C., protected from light): at least 7 h | stability upon concentration to dryness ([2]; 1H NMR analysis): decomposed within two hours

CC1(C)C=Cc2c(ccc3c2[N+]([O-])=C2C3=C[C@@]34NC(=O)[C@]5(CCCN5C3=O)C[C@H]4C2(C)C)O1 [avrainvillamide]
effect on the cell cycle (cell cycle): induces arrest in G2/M | concentration inducing apoptosis (apoptosis and necrosis): 1 to 4 µM | concentration inducing necrosis (apoptosis and necrosis): 8 µM | species present under physiological conditions [3]: major species present under physiological conditions | antiproliferative activity [4]: exhibit antiproliferative activity | antimicrobial activity [1]: anti-microbial activity against multidrug-resistant bacteria | equilibrium constant, methanol-d4 adducts combined to 2 ([5]; 23° C., tentative): 7.7 | time to form the products of 1,5-addition of methanol-d4 ([5]; pure methanol-d4, 23° C.): < 10 min | half-life ([5]; solution in pure methanol-d4): < 10 min

CC1(C)C=Cc2c(ccc3c2[N+]([O-])=C2C(C)(C)[C@@H]4C[C@]56CCCN5C(=O)C4(NC6=O)C4N5C(=O)C67CCCN6C(=O)[C@]56C(C7)C(C)(C)c5c(c7ccc8c(c7n5O)C=CC(C)(C)O8)[C@H]6C234)O1 (stereo partly drawn) [stephacidin B]
avrainvillamide formed by decomposition of stephacidin B [3]: 1.7 equiv. | antiproliferative activity [4]: exhibit antiproliferative activity

avrainvillamide [compound 1]
time solutions appeared stable [6]: at least 48 h

Source: patent publication US7902196B2, “Synthesis of avrainvillamide, strephacidin B, and analogues thereof” (President and Fellows of Harvard College, priority 2005, dated 2011)
